In US20240415808A1, “Dosage Regimen for Fexuprazan Injection Composition” (Daewoong Pharmaceutical Co., Ltd., priority 2021, published 2024):

What was measured:
[1] = test system: indomethacin-induced bleeding gastric ulcer; test: indomethacin-induced bleeding gastric ulcer model using male rats; assay type: in vivo, rat; conditions: for Ulcer index (%): 30 min before indomethacin 80 mg/kg oral, autopsy 5 h; for Ulcer index (%) / Gastric erosion state / Gastric hemorrhage state: mean ± SD; for Gastric erosion state / Gastric hemorrhage state: histopathological examination
Procedure: In order to evaluate the efficacy of fexuprazan against bleeding gastric ulcers, an indomethacin-induced bleeding gastric ulcer model using male rats was used.
Specifically, the previously prepared 1-(5-(2,4-difluorophenyl)-1-((3-fluorophenyl)sulfonyl)-4-methoxy-1H-pyrrol-3-yl)-N-methylmethanamine (hereinafter referred to as ‘fexuprazan’) hydrochloride was dissolved in a solution containing 30 wt. % of polyethylene glycol (Polyethylene Glycol 400) polymer in physiological saline. The concentration was adjusted so that 0, 0.1, 0.5, 1, 2 mg/kg based on fexuprazan weight could be administered to each test animal in a liquid volume of 1 mL/kg, and then each test animal was administered through the tail vein as a single dose. In addition, 1 mg/kg of esomeprazole magnesium trihydrate, which is a positive control, based on esomeprazole weight was administered as a single dose through the tail vein in test animals. After 30 minutes, 80 mg/kg of indomethacin was orally administered as a single dose to each test animal to induce gastric bleeding and ulceration. An autopsy was performed 5 hours after administration of indomethacin, and the stomach was removed. Then, the ulcer index (%) was measured using an image program (Leica Application Suite V4), and gastric hemorrhage and erosion state were evaluated through histopathological examination.

[2] = pharmacokinetic experiment in male rats (oral and tail vein); assay type: in vivo, rat
Procedure: Methylcellulose was dissolved in physiological saline to prepare a solution containing methylcellulose at a concentration of 0.5 wt %, and then the previously prepared fexuprazan hydrochloride was added thereto to prepare a composition with Fexuprazan at a concentration of 1 mg/mL. The composition prepared above was orally administered to male rats at a dose of 2 mg/kg in a liquid volume of 2 mL/kg depending on the body weight of the individual, and then blood was collected using an orbital blood collection method at 0.25, 0.5, 1, 2, 4, 6, 8, and 24 hours, and centrifuged at 10,000 rpm for 5 minutes. Plasma was collected, analyzed by HPLC-MS/MS, and pharmacokinetic parameters were calculated.
Then, methylcellulose was dissolved in physiological saline to prepare a solution containing methylcellulose at a concentration of 0.5 wt,%, and then the previously prepared fexuprazan hydrochloride was added thereto to prepare a composition with fexuprazan at a concentration of 1 mg/mL. The composition was administered through the tail vein in male rats at a dose of 1 mg/kg in a liquid volume of 1 mL/kg depending on the body weight of the individual. Blood was collected by the same method as in oral administration at 0.083, 0.25, 0.5, 1, 2, 4, 6, 8, and 24 hours, and then analyzed.

[3] = 4-week repeated intravenous toxicity test, rat; assay type: in vivo
Procedure: (§1) The previously prepared fexuprazan hydrochloride was dissolved in a solution containing 30 wt. % of polyethylene glycol (Polyethylene Glycol 400) polymer in physiological saline, and the concentration was calculated based on fexuprazan weight so that it could be administered at a liquid volume of 5 mL/kg for rats and 2 mL/kg for beagle dogs to prepare each composition. Toxicity was evaluated by intravenously administering at doses of 0, 2.5, 5, and 10 mg/kg/day to rats and beagle dogs, respectively, once a day for 4 weeks.

[4] = 4-week repeated intravenous toxicity test, beagle dog; assay type: in vivo
Procedure: as §1

[5] = 0.1 mg/kg single dose tail vein
[6] = 0.5 mg/kg single dose tail vein

Question: For `CNCc1cn(S(=O)(=O)c2cccc(F)c2)c(-c2ccc(F)cc2F)c1OC` [Fexuprazan, 1-(5-(2,4-difluorophenyl)-1-((3-fluorophenyl)sulfonyl)-4-methoxy-1H-pyrrol-3-yl)-N-methylmethanamine], which “Ulcer index (%)” value [1, 5] is on record?
Answer: The value was 9.2 ± 2.3^ %.

Question: What about the Gastric erosion state [1, 5] of the same compound?
Answer: Its Gastric erosion state is 2.9 ± 1.2.

Question: What about the Gastric hemorrhage state [1, 5] of the same compound?
Answer: Its Gastric hemorrhage state is 1.5 ± 1.6^.

Question: What about the “Ulcer index (%)” value [1, 6] of the same compound?
Answer: The value was 4.0 ± 1.8 %.

Question: And the Gastric erosion state [1, 6]?
Answer: The Gastric erosion state was 1.3 ± 1.0.

Question: What about the Gastric hemorrhage state [1, 6] of the same compound?
Answer: Its Gastric hemorrhage state is 0.5 ± 0.8.

Question: What about the “Ulcer index (%)” value ([1]; 1 mg/kg single dose tail vein) of the same compound?
Answer: Its value is 4.2 ± 2.5 %.

Question: What about the Gastric erosion state ([1]; 1 mg/kg single dose tail vein) of the same compound?
Answer: The Gastric erosion state was 0.8 ± 0.7.

Question: What about the Gastric hemorrhage state ([1]; 1 mg/kg single dose tail vein) of the same compound?
Answer: The Gastric hemorrhage state was 0.3 ± 0.5.

Question: What about the “Ulcer index (%)” value ([1]; 2 mg/kg single dose tail vein) of the same compound?
Answer: The value was 4.2 ± 1.5 %.

Question: What about the Gastric erosion state ([1]; 2 mg/kg single dose tail vein) of the same compound?
Answer: The Gastric erosion state was 0.3 ± 0.5.

Question: And the Gastric hemorrhage state ([1]; 2 mg/kg single dose tail vein)?
Answer: The Gastric hemorrhage state was 0.3 ± 0.5.

Question: What about the minimum effective dose ([1]; single dose tail vein, ulcer index, gastric hemorrhage and erosion state vs excipient group) of the same compound?
Answer: Its minimum effective dose is 0.5 mg/kg.

Question: What about the BA ([2]; PO 2 mg/kg vs IV 1 mg/kg) of the same compound?
Answer: Its BA is 24.7%.

Question: And the AUC(0-t) ([2]; rat, plasma, IV 1 mg/kg)?
Answer: The AUC(0-t) was 0.143 ± 0.038 µg·h/mL.

Question: And the Vd ([2]; rat, plasma, IV 1 mg/kg)?
Answer: The Vd was 20.2 ± 5.2 L/kg.

Question: What about the clearance ([2]; rat, plasma, IV 1 mg/kg) of the same compound?
Answer: The clearance was 6.84 ± 1.74 L/h/kg.

Question: And the half-life ([2]; rat, plasma, IV 1 mg/kg)?
Answer: Its half-life is 2.06 ± 0.25 h.

Question: What about the AUC(0-t) ([2]; rat, plasma, PO 2 mg/kg) of the same compound?
Answer: The AUC(0-t) was 0.0709 ± 0.0224 µg·h/mL.

Question: What about the Cmax ([2]; rat, plasma, PO 2 mg/kg) of the same compound?
Answer: The Cmax was 0.0238 ± 0.0107 µg/mL.

Question: And the Tmax ([2]; rat, plasma, PO 2 mg/kg)?
Answer: The Tmax was 0.833 ± 0.289 h.

Question: And the half-life ([2]; rat, plasma, PO 2 mg/kg)?
Answer: The half-life was 1.74 ± 0.16 h.

Question: What about the “Result: harmless dose” value ([3]; Rat, 4 weeks, intravenous, doses 0, 2.5, 5, 10) of the same compound?
Answer: Its value is “harmless dose 10 mg/kg”.

Question: And the “toxic symptoms due to the test substance” value ([3]; rats, 2.5, 5, 10 mg/kg/day intravenous, 4 weeks)?
Answer: Its value is “no toxic symptoms due to the test substance were observed in all administration groups”.

Question: What about the harmless dose ([3]; rats, intravenous once a day for 4 weeks) of the same compound?
Answer: Its harmless dose is 10 mg/kg/day.

Question: What about the “Result: harmless dose” value ([4]; Beagle dog, 4 weeks, intravenous, doses 0, 2.5, 5, 10) of the same compound?
Answer: Its value is “harmless dose 10 mg/kg”.

Question: And the “toxic symptoms due to the test substance” value ([4]; beagle dogs, 2.5, 5, 10 mg/kg/day intravenous, 4 weeks)?
Answer: Its value is “no toxic symptoms due to the test substance were observed in all administration groups”.

Question: And the harmless dose ([4]; beagle dogs, intravenous once a day for 4 weeks)?
Answer: The harmless dose was 10 mg/kg/day.
